Data from patent publication EP0819688A1, “4-substituted benzofuranes” (Byk Gulden Lomberg Chemische Fabrik GmbH, priority 1996, dated 1998).

system: PDE IV; experiment: Inhibition of PDE IV activity (method of Bauer and Schwabe, adapted to microtiter plates); type: biochemical; details: Hemmung der PDE IV-Aktivität
Source text: Der Aktivitätstest wurde nach der Methode von Bauer und Schwabe durchgeführt, die auf Mikrotiterplatten adaptiert wurde (Naunyn-Schmiedeberg's Arch. Pharmacol. 1980, 311, 193-198). Hierbei erfolgt im ersten Schritt die PDE-Reaktion. In einem zweiten Schritt wird das entstandene 5'-Nukleotid durch eine 5'-Nukleotidase des Schlangengiftes von ophiophagus hannah (King Cobra) zum ungeladenen Nukleosid gespalten. Im dritten Schritt wird das Nukleosid auf Ionenaustauschsäulen vom verbliebenen geladenen Substrat getrennt. Die Säulen werden mit 2 ml 30 mM Ammoniumformiat (pH 6,0) direkt in Minivials eluiert, in die noch 2 ml Szintillatorflüssigkeit zur Zählung gegeben wird.
Die für die erfindungsgemäßen Verbindungen ermittelten Hemmwerte ergeben sich aus der folgenden Tabelle A, in der die Nummern der Verbindungen den Nummern der Beispiele entsprechen. Tabelle A

Structure (SMILES) | PDE4 -logIC50
COc1ccc(CC(C#N)c2cccnc2)c2cc(C3CCCC3)oc12 (racemic) [Verbindung 11, (±)-4-[2-Cyano-2-(pyrid-3-yl)ethyl]-2-cyclopentyl-7-methoxybenzofuran] | 6,99
COc1ccc(/C=C/c2ccncc2)c2cc(C3CCCC3)oc12 [Verbindung 3, (E)-2-Cyclopentyl-4-[2-(pyrid-4-yl)ethenyl]-7-methoxybenzofuran] | 6,77
COc1ccc(CCc2ccncc2)c2cc(C(C)C)oc12 [Verbindung 6, 2-Isopronyl-7-methoxy-4-[2-(pyrid-4-yl)ethyl]benzofuran] | 8,22
COc1ccc(C=C(C#N)c2ccncc2)c2cc(C(C)C)oc12 (mixture of isomers) [Verbindung 9, (E/Z)-4-[2-Cyano-2-(pyrid-4-yl)ethenyl]-2-isopropyl-7-methoxybenzofuran] | 6,64
COc1ccc(/C=C(\C#N)c2cccnc2)c2cc(C3CCCC3)oc12 [Verbindung 8, (Z)-4-[2-Cyano-2-(pyrid-3-yl)ethenyl]-2-cyclopentyl-7-methoxy-benzofuran] | 6,51
COc1ccc(/C=C(\C#N)c2ccncc2)c2cc(C3CCCC3)oc12 [Verbindung 7, (Z)-4-[2-Cyano-2-(pyrid-4-yl)ethenyl]-2-cyclopentyl-7-methoxy-benzofuran] | 6,29
COc1ccc(C(O)Cc2ccncc2)c2cc(C3CCCC3)oc12 (racemic) [Verbindung 1] | 6,45
COc1ccc(CC(C#N)c2ccncc2)c2cc(C(C)C)oc12 (racemic) [Verbindung 12, (±)-4-[2-Cyano-2-(pyrid-4-yl)ethyl]-2-isopropyl-7-methoxybenzofuran] | 7,26
COc1ccc(CCc2ccncc2)c2cc(C3CCCC3)oc12 [Verbindung 5, 2-Cyclopentyl-7-methoxy-4-[2-(pyrid-4-yl)ethyl]benzofuran] | 7,97
COc1ccc(C(O)Cc2ccncc2)c2cc(C(C)C)oc12 (racemic) [Verbindung 2, (±)-4-[1-Hydroxy-2-(pyrid-4-yl)ethyl]-2-isopropyl-7-methoxybenzofuran] | 6,86
COc1ccc(CC(C#N)c2ccncc2)c2cc(C3CCCC3)oc12 (racemic) [Verbindung 10, (±)-4-[2-Cyano-2-(pyrid-4-yl)ethyl]-2-cyclopentyl-7-methoxybenzofuran] | 6,56
COc1ccc(/C=C/c2ccncc2)c2cc(C(C)C)oc12 [Verbindung 4, (E)-2-Isopropyl-4-[2-(pyrid-4-yl)ethenyl]-7-methoxybenzofuran] | 7,21
